Data from patent US20080268435A1, “Brca1 Markers” (THE QUEEN'S UNIVERSITY OF BELFAST, priority 2004, published 2008).

Legend:
Assay type in all cases: cell-based
[1] = system: HP1 and MDA-MB-231-zeo cell lines; assay: 72 hour dose inhibition study of etoposide, psoriasin-expressing HP1 vs empty vector MDA-MB-231-zeo cells; settings: HP1 (exogenous psoriasin) vs MDA-MB231-zeo vector control; 72 h continuous exposure; from IC50 values; three independent experiments
Experimental: (§1) Cells were either untreated (lanes 1 and 2) or treated with 1 μM etoposide for 24 hours. The blot was reprobed for GAPDH as a loading control, (b) A Western blot evaluating the expression of psoriasin protein in the HCC-EV1 cell line (lanes 1 and 3) and the HCC-BR116 cell line (lanes 2 and 4). Cells were either untreated (lanes 1 and 2) or treated with 1 μM etoposide for 24 hours. The blot was reprobed for GAPDH as a loading control, (c) A 72 hour dose inhibition study investigating the effect of psoriasin expression on the response to etoposide in the HP1 and MDA-MB-231-zeo cell lines. The IC50 values were calculated from the sigmoidal dose response curves. […] (Symbols □=HP1 cell line (psoriasin expression) ▴=MDA-MB-231-zeo (empty vector control), (d) A 72 hour dose inhibition study investigating the effect of loss of psoriasin expression on the response to etoposide in the HCCEV1 cell line. The IC50 values were calculated from the sigmoidal dose response curves. The results represent three independent experiments. (Symbols ▴=siRNA to psoriasin □=scrambled sequence). […]
The HCC-EV1 cell line was treated with scrambled or psoriasin specific siRNA and after 24 hours seeded at 100,000 cells per well on 24 well tissue culture plates. […] After 72 h of continuous drug exposure, cells were detached with trypsin, and counted using a Z2 particle and size analyzer (Coulter, Miami, Fla.). […]

HCC-EV1 cell line = assay: 72 hour dose inhibition study of etoposide in HCC-EV1 cells, psoriasin siRNA vs scrambled sequence; settings: BRCA1 deficient HCC-EV cells, 72 h exposure, from IC50 values, three independent experiments
Experimental: as §1
For drug sensitivity assays HCC-EV and HCCBR cells were seeded onto 24-well tissue culture plates at a density of 100,000 cells per well. […] After 72 hours of continuous drug exposure, cells were detached with trypsin and counted using a Z2 particle and size analyser (Coulter, Miami, Fla.). […]

[2] = system: psoriasin (S100A7) mRNA and protein in HCC-EV1 and HCC-BR116 cells; assay: Northern and Western blot of psoriasin expression after etoposide treatment; settings: BRCA1 deficient cells (HCC-EV1), 1 μM etoposide for 24 hours
Experimental: Cells were either untreated (lanes 1 and 2) or treated with 1 μM etoposide for 24 hours. The blot was reprobed for GAPDH as a loading control, (b) A Western blot evaluating the expression of psoriasin protein in the HCC-EV1 cell line (lanes 1 and 3) and the HCC-BR116 cell line (lanes 2 and 4). Cells were either untreated (lanes 1 and 2) or treated with 1 μM etoposide for 24 hours. The blot was reprobed for GAPDH as a loading control, (c) A 72 hour dose inhibition study investigating the effect of psoriasin expression on the response to etoposide in the HP1 and MDA-MB-231-zeo cell lines. The IC50 values were calculated from the sigmoidal dose response curves. The results represent three independent experiments. (Symbols □=HP1 cell line (psoriasin expression) ▴=MDA-MB-231-zeo (empty vector control), (d) A 72 hour dose inhibition study investigating the effect of loss of psoriasin expression on the response to etoposide in the HCCEV1 cell line. The IC50 values were calculated from the sigmoidal dose response curves. The results represent three independent experiments. (Symbols ▴=siRNA to psoriasin □=scrambled sequence). […]

COc1cc([C@@H]2c3cc4c(cc3[C@@H](O[C@@H]3O[C@@H]5CO[C@@H](C)O[C@H]5[C@H](O)[C@H]3O)[C@H]3COC(=O)[C@H]23)OCO4)cc(OC)c1O [etoposide]
increase in sensitivity to etoposide induced by expression of psoriasin [1]: 4000 fold | increase in resistance to etoposide induced by inhibition of endogenous psoriasin (HCC-EV1 cell line): greater than 20 fold | expression of psoriasin mRNA and protein following etoposide treatment [2]: enhanced expression
